Where “and” joins values, the source holds several entries; their conditions need not be identical. Equal values may be shown once. Calls of active or inactive are those of the source.

The values below come from ChEMBL document CHEMBL1201862, “PubChem BioAssay data set” (2004).

The first test addresses T1, Replicative DNA helicase DnaB (Mycobacterium tuberculosis, UniProt P9WMR3).
T1 sequence (P9WMR3 whole entry): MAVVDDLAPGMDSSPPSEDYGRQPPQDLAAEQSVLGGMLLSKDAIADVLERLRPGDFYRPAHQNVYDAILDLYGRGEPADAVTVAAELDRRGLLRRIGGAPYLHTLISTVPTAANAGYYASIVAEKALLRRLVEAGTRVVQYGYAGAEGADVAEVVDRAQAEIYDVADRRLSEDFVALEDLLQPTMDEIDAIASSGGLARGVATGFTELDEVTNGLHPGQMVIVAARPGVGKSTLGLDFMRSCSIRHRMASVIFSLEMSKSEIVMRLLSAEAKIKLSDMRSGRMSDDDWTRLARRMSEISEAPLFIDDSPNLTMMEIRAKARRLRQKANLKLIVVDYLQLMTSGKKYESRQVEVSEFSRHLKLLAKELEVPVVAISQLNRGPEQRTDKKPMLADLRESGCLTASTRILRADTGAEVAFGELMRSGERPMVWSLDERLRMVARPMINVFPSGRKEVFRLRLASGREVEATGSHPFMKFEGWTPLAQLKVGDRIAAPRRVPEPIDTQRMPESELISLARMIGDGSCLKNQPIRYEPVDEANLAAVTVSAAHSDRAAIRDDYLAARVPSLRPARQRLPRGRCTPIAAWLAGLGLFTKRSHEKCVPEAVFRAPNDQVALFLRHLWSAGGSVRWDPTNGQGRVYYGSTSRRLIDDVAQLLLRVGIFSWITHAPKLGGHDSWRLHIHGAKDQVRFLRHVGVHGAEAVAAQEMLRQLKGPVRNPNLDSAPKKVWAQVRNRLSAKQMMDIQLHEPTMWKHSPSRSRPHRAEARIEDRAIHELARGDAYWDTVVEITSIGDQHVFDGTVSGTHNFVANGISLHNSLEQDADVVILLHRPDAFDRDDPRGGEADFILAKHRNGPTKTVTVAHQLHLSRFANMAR
Nature of the test: DnaB intein splicing inhibitors, dose response, biochemical, cell-free fluorescence (AID 449749). Format: functional.
Usually AC50 stands for the midpoint of the concentration-response curve, whichever way the signal moves. For the compound `O=C(NC1(O)C(=O)c2ccccc2C1=O)c1ccccc1`, the AC50 was 7.72 µM (active).
Same read-out and setting: under `O=C(Nc1ccccc1Cl)/C(Cl)=C(\Cl)[S+]([O-])c1ccccc1` (centres undefined) stands 2.7 µM (active); under `CCCCCCCCCCCCCCCCn1cc[n+](C)c1`, 3.37 µM (active) and 3.76 µM (active); under `Cc1ccc(C)c(S(=O)(=O)/N=C2\C=C(NS(=O)(=O)c3ccccc3)C(=O)c3ccccc32)c1`, 2.17 µM (active).

In the next test the target is T2, Protein RecA (Mycobacterium tuberculosis, UniProt P9WHJ3).
T2 sequence (P9WHJ3 whole entry): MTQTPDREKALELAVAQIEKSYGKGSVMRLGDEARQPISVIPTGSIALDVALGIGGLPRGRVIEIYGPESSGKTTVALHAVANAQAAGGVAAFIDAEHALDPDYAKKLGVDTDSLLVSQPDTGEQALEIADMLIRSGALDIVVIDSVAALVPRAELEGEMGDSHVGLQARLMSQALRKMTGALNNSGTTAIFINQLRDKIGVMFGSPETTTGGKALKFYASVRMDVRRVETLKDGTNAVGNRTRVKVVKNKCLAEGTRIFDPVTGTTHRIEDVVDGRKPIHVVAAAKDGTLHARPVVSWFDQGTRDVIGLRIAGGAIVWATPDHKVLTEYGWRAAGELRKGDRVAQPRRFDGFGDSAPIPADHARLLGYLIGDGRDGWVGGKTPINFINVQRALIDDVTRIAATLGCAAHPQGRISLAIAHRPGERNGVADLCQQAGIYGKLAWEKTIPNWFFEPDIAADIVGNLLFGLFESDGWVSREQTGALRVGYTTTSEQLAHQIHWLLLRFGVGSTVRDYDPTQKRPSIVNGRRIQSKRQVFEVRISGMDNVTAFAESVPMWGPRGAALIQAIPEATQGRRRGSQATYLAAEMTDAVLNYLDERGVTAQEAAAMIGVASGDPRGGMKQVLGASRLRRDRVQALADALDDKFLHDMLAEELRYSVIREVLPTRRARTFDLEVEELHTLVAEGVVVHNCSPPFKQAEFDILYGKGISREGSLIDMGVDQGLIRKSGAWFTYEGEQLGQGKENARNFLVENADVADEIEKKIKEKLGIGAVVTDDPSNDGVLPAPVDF
Nature of the test: Fluorescence Cell-Free Homogeneous Dose Retest to Identify Inhibitors of RecA-Intein Splicing Activity. [Related pubchem assays (depositor defined):AID2097, AID2223, AID489010, AID492950]. Format: functional.
For orientation: EC50 means the midpoint of the concentration-response curve. Turning to `O=C(NC1(O)C(=O)c2ccccc2C1=O)c1ccccc1`, the 50% effective concentration (EC50) was 16.4 µM (active).
On the same count and under the same terms, under `O=C(Nc1ccccc1Cl)/C(Cl)=C(\Cl)[S+]([O-])c1ccccc1` (centres undefined) stands 0.935 µM (active).
Still for that read-out and setting: under `CCCCCCCCCCCCCCCCn1cc[n+](C)c1` stands 9.84 µM (active) and 8.55 µM (active); under `Cc1ccc(C)c(S(=O)(=O)/N=C2\C=C(NS(=O)(=O)c3ccccc3)C(=O)c3ccccc32)c1`, 2.25 µM (active).

The target of the next test is T3, Apoptotic protease-activating factor 1 (Homo sapiens, UniProt O14727).
T3 sequence (O14727 whole entry): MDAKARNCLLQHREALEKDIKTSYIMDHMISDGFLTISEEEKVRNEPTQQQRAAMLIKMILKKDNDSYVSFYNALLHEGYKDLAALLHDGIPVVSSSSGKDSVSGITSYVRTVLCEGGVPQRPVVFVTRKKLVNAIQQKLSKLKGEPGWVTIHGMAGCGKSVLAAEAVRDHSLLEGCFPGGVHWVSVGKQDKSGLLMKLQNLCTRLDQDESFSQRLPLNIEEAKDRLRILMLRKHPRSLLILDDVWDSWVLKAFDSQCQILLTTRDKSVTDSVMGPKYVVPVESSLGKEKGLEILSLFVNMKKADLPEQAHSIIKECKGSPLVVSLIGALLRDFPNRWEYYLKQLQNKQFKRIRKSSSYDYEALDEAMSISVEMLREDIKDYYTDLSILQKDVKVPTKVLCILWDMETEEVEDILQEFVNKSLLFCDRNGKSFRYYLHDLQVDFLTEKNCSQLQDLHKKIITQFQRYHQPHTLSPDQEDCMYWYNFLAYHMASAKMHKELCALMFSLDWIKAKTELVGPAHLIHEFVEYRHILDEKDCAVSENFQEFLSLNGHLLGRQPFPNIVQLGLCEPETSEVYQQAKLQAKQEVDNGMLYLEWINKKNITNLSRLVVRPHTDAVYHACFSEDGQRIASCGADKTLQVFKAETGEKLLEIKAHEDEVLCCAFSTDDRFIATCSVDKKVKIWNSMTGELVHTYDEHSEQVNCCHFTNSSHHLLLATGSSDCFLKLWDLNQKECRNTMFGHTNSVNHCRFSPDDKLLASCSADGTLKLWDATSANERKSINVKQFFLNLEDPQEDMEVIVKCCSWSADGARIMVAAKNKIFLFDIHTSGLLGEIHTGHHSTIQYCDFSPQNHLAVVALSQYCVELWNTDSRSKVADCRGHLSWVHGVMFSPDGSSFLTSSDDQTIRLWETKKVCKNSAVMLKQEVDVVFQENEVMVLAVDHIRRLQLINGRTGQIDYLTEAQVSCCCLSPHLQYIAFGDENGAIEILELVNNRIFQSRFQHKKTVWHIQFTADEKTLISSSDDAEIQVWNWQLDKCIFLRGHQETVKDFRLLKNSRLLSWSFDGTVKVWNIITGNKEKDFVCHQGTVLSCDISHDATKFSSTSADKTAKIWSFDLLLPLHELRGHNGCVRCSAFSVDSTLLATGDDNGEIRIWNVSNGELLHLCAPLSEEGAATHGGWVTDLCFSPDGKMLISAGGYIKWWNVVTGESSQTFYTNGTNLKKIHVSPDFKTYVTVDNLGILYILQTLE
Format: functional.
As usually defined, the IC50 is the concentration that gives 50% inhibition. Turning to `O=C(NC1(O)C(=O)c2ccccc2C1=O)c1ccccc1`, the IC50 was 3.22 µM (active).
Still for that read-out and setting: the value for `CCCCCCCCCCCCCCCCn1cc[n+](C)c1` was 22.2 µM (active) and 21.1 µM (active).
For `Cc1ccc(C)c(S(=O)(=O)/N=C2\C=C(NS(=O)(=O)c3ccccc3)C(=O)c3ccccc32)c1`, the half-maximal inhibitory concentration (IC50) was 12 µM (active).
The same measure, in the same setting: under `Cc1cc(C)nc(/N=c2/ssnc2Cl)c1` stands 2.9 µM (active).

System in a further test: not listed separately
Kind of test: NIH-3T3 fibroblast cytotoxicity, dose response, cytotoxicity control, cell-based, fluorescence, Alamar Blue, secondary assay (AID 2327).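 Further: NIH-3T3 mouse fibroblasts cultured with fluconazole at 8 µg/mL.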 The test is classed as functional. In general terms: Alamar Blue is a resazurin reagent that responds to reducing activity.
In the case of `O=C(Nc1ccccc1Cl)/C(Cl)=C(\Cl)[S+]([O-])c1ccccc1` (centres undefined), the EC50 was 3.5 µM (active).
Still for that read-out and setting: the value for `CCCCCCCCCCCCCCCCn1cc[n+](C)c1` was 149 µM (active).
